From patent EP0437336B1, “Biophosphoryl hydrazines and their use as pesticides” (priority 1990, dated 1991)
≈ marks a conversion by molar mass, not a printed value. Read-outs that look alike come from different tables or passages of the source.

Key:
[1] = test system: southern corn rootworm, Diabrotica undecimpunctata howardi; details: for pest or weed control at 560 g/ha: Diabrotica undecimpunctata, in Zea mays, foliar, 336 h, read-out: foliar systemic nonagressive Method B crw % control at 0.56 kg/ha (0.5 lb/acre); for foliar systemic nonagressive Method B crw % control at 0.56 kg/ha (0.5 lb/acre): percent control relative to infested check, from root damage ratings, 14 days post-spraying
[2] = test system: southern corn rootworm, Diabrotica undecimpunctata howardi; assay: Biological Method A: Corn Rootworm Screening Test (treated non-aggressive soil); details: soil concentration giving 90% mortality, 10 days at 27°C
[3] = test system: southern corn rootworm, Diabrotica undecimpunctata howardi; details: at-planting soil application
Two-Spotted Spider Mite = assay: Biological Method D: Foliar Insecticidal Activity Test, mite test; assay type: in vivo, Tetranychus urticae; design: key to LC50 TSM: I = inactive at concentration listed; details: Method D foliar test, Two-Spotted Spider Mite; for LC50: Tetranychus urticae, read-out: LC50 TSM
Mexican Bean Beetle = assay: Biological Method D: Foliar Insecticidal Activity Test, Mexican Bean Beetle test; assay type: in vivo, Epilachna varivestis; details: Epilachna varivestis, Method D foliar test, Mexican Bean Beetle
Boll Weevil [4] = assay: Biological Method D: Foliar Insecticidal Activity Test, boll weevil test; assay type: in vivo, Anthonomous grandis; design: key: I = inactive at concentration listed
Green Peach Aphid = assay: Biological Method D: Foliar Insecticidal Activity Test, aphid test; assay type: in vivo, Myzus persicae; design: key: I = inactive at concentration listed
Southern Armyworm = assay: Biological Method D: Foliar Insecticidal Activity Test, Southern Armyworm test; assay type: in vivo, Spodoptera eridania; design: key: I = inactive at concentration listed
Boll Weevil [5] = assay: Biological Method D: Foliar Insecticidal Activity Test, boll weevil test; assay type: in vivo, Anthonomous grandis; details: Method D foliar test, Boll Weevil
[6] = 48 hrs, read-out: LC50 BB 48 hrs.
[7] = 96 hrs, read-out: LC50 BB 96 hrs

Row | SMILES | pest or weed control at 560 g/ha [1] | primary nonagressive Method A crw LC90 [2] | secondary aggressive Method C crw LC50 ([3]; rated 17 days post-infestation) | secondary aggressive Method C crw LC50 ([3]; value in brackets) | LC50 TSM (Two-Spotted Spider Mite) | LC50 (Mexican Bean Beetle; [6]) | LC50 (Mexican Bean Beetle; [7]) | LC50 BW 48 hrs (Boll Weevil [4]) | LC50 BW 96 hrs (Boll Weevil [4]) | LC50 GPA (Green Peach Aphid) | LC50 AW 48 hrs (Southern Armyworm) | LC50 AW 96 hrs (Southern Armyworm) | foliar systemic nonagressive Method B crw % control at 0.56 kg/ha (0.5 lb/acre) [1] | LC50 BW 96 hrs (Boll Weevil [5]) | LC50 (Two-Spotted Spider Mite) | LC50 BW 48 hrs (Boll Weevil [5]; 48 hrs)
1 | CCCCOP(=S)(NNP(=S)(OCCC)OCCC)OCC (stereo not drawn) [Compound 17] | 38% | 1.1 ppm | 1.02 kg/ha | 0.91 lb/acre | I | 150 µg/mL (≈ 382 µM) | 62 µg/mL (≈ 158 µM) | I | I | I | I | I | – | – | – | –
2 | CCCOP(=S)(NNP(=S)(OCCC)OCCC)OCCC [Compound 14, reference compound] | 46% | 0.39 ppm | 1.12 kg/ha | 1.0 lb/acre | I | 500 µg/mL (≈ 1270 µM) | 52 µg/mL (≈ 132 µM) | I | I | I | I | I | – | – | – | –
3 | CCCNP(=S)(NNP(=S)(OCC)OCC)OCC (stereo not drawn) [Compound 24] | – | 1.1 ppm | – | – | I | 27 µg/mL (≈ 77.3 µM) | 31 µg/mL (≈ 88.7 µM) | I | – | I | I | I | 38% | 380 ppm | – | –
4 | CCOP(=S)(NNP(=S)(OC(C)C)OC(C)C)OCC [Compound 9, reference compound] | – | 0.41 ppm | 1.1 kg/ha | 0.98 lb/acre | – | 300 µg/mL (≈ 823 µM) | 150 µg/mL (≈ 412 µM) | I | I | I | I | I | 64% | – | 76 µg/mL (≈ 209 µM) | –
5 | CCOP(=S)(NNP(=S)(OCC)OCC(C)(C)C)OCC (stereo not drawn) [Compound 38, N-(O,O-diethylthiophosphoryl) N′-(O-ethyl O-neopentylthiophosphoryl) hydrazine] | 46% | 0.07 ppm | 0.5 kg/ha | 0.45 lb/acre | – | 60 µg/mL (≈ 159 µM) | 60 µg/mL (≈ 159 µM) | – | – | I | I | I | – | 740 ppm | 150 µg/mL (≈ 396 µM) | 740 ppm
6 | CCOP(=S)(NNP(=S)(OCC)OCC(C)C)OCC (stereo not drawn) [Compound 11, N-(O,O-diethylthiophosphoryl) N′-(O-ethyl O-isobutylthiophosphoryl) hydrazine] | – | <0.1 ppm | 0.36 kg/ha | 0.32 lb/acre | I | 150 µg/mL (≈ 412 µM) | 60 µg/mL (≈ 165 µM) | I | – | I | I | I | 53% | 740 ppm | – | –
7 | CCCOP(=S)(NNP(=S)(OC(C)C)OC(C)C)OCCC [Compound 16, reference compound] | 46% | 0.95 ppm | 1.03 kg/ha | 0.92 lb/acre | I | 150 µg/mL (≈ 382 µM) | 62 µg/mL (≈ 158 µM) | I | I | I | I | I | – | – | – | –
8 | CCCOP(=S)(NNP(=S)(OCC)OC(C)CC)OCCC (stereo not drawn) [Compound 19, N-(O,O-dipropylthiophosphoryl) N′-(O-ethyl O-secbutylthiophosphoryl) hydrazine] | 54% | <0.1 ppm | 0.28 kg/ha | 0.25 lb/acre | I | 78 µg/mL (≈ 199 µM) | 62 µg/mL (≈ 158 µM) | I | I | I | I | I | – | – | – | –
9 | CCCOP(=S)(NNP(=S)(OCC)OCC(C)C)OCCC (stereo not drawn) [Compound 18, N-(O,O-dipropylthiophosphoryl) N′-(O-ethyl O-isobutylthiophosphoryl) hydrazine] | 61% | <0.1 ppm | 0.36 kg/ha | 0.32 lb/acre | I | 150 µg/mL (≈ 382 µM) | 78 µg/mL (≈ 199 µM) | I | I | I | I | I | – | – | – | –
10 | CCOP(=S)(NNP(=S)(OCC)OC(C)(C(F)(F)F)C(F)(F)F)OCC (stereo not drawn) [Compound 39] | 46% | 0.71 ppm | – | – | – | 31 µg/mL (≈ 65.6 µM) | 150 µg/mL (≈ 318 µM) | I | I | I | I | I | – | – | 150 µg/mL (≈ 318 µM) | –
11 | CCOP(=S)(NNP(=S)(OCC)OC(C)CC)OCC (stereo not drawn) [Compound 8] | – | <0.1 ppm | 0.81 kg/ha | 0.72 lb/acre | – | 500 µg/mL (≈ 1370 µM) | 84 µg/mL (≈ 231 µM) | I | – | I | I | I | 53% | 740 ppm | 335 µg/mL (≈ 919 µM) | –
12 | CCOP(=S)(NNP(=S)(OCC)SC(C)C)OCC (stereo not drawn) [Compound 20] | – | 0.40 ppm | 1.01 kg/ha | 0.90 lb/acre | I | 110 µg/mL (≈ 300 µM) | 52 µg/mL (≈ 142 µM) | I | I | I | I | I | 50% | – | – | –
13 | C#CCOP(=S)(NNP(=S)(OCC)OCC)OCC (stereo not drawn) [Compound 12] | – | 0.56 ppm | – | – | I | 150 µg/mL (≈ 433 µM) | 62 µg/mL (≈ 179 µM) | I | I | I | I | I | 30% | – | – | –
